The text below walks through data of patent publication US20180235916A1, “ENHANCING BETA CELL REPLICATION AND/OR SURVIVAL” (priority 2015, published 2018).

Values after ≈ are worked out from the molar mass of the structure shown. “Also recorded” adds a separate entry of the source. Like-named read-outs stand apart in the source and are kept apart here.

Data set [1] has as its system INS-1 cells. In words: INS-1 cell proliferation, 3H-thymidine incorporation assay. The format is cell-based. Particulars: for INS-1 cell proliferation, single agents of TSPO experiment: each agent alone, midazolam or clonazepam 100 nM; for effect on GABA-stimulated INS-1 cell proliferation: low doses of PAM with GABA, FIG. 9 panels D-G. Here is the method: 1. ^3H-thymidine incorporation assay: INS-1 cells at 1×10^5/well were treated in triplicate with indicated concentrations of individual compounds and cultured in 10% FCS RPMI164 medium in the presence of 0.3 μCi/well of 3H-thymidine for 48 hours (an optimal time period). The cells were harvested and the levels of ^3H-thymidine uptake in individual wells were measured by beta-counter.
1. ^3H-thymidine incorporation assay: INS-1 cells at 1×10^5/well were treated in triplicate with indicated concentrations of individual compounds and cultured in 10% FCS RPMI164 medium in the presence of 0.3 uCi/well of ^3H-thymidine for 48 hours (an optimal time period). The cells were harvested and the levels of ^3H-thymidine uptake in individual wells were measured by beta-counter.
INS-1 cells at 1×10^5/well were treated in triplicate with indicated concentrations of individual compounds and cultured in 10% FCS RPMI164 medium in the presence of ^3H-thymidine (0.3 μCi/well) for 48 hours (an optimal time period). The levels of ^3H-thymidine uptake in individual wells were measured by a scintillation counter.
(In general: Incorporation of labelled thymidine or its analogues reports DNA synthesis.)

Data set [2] in a line: Solubility of test compounds (stock solutions).
For data set [3], the system named is adult human β-cells in islet xenoplants. Particulars: oral GABA treatment; from less than 1% without; cited from earlier work.
The conditions of data set [4]: long-term oral GABA, human clinical trials, epileptic seizures and cerebrovascular disorders; cited from earlier work.
The subject of data set [5] is human islets. Type of data set: cell-based. As to the method:
FIG. 2. Human islets (50/well) were incubated in media with, or without, alprazolam (30 ng/ml) for 4 days in the presence of ^3H thymidine. Data shown are the average rate of proliferation relative to that of cultures with media alone (designated as 1). N=two independent studies with triplicate cultures. Data was very similar in both studies.
N=two independent studies

Data set [6] concerns EAE. As to conditions: stressed rats; cited from earlier work.
For data set [7] the following is noted: persons receiving the drug therapeutically; cited from earlier work.
For data set [8] the following is noted: patients with T1D or T2D, poor glucose control, after 8 weeks of treatment, vs placebo; cited from earlier work.
Data set [9] addresses mitochondrial translocator protein (TSPO) (Homo sapiens, UniProt P30536). Particulars: cited from earlier work.
Where [10] appears, read: compound alone at 10^−7-10^−8 M.
Setting [11] is: GABA 0.3 mM, PK11195 1 uM, 48 hrs.
Where [12] appears, read: PAM alone at 10 or/and 100 nM, FIG. 9 panel B.
Setting [13] is: PAM 100 nM with GABA 0.3 mM, 48 hrs.
Setting [14] is: PAM at 10^−7 or 3×10^−8 M with GABA.

Chain of mitochondrial translocator protein (TSPO) (P30536 whole entry): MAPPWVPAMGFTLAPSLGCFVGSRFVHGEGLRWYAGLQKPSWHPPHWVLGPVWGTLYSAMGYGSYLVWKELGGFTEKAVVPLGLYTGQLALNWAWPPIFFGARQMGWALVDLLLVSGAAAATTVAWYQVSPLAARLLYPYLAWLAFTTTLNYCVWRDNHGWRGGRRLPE

Consider `Cc1cc(NC(=O)/C(C#N)=C(\O)C2CC2)ccc1C(F)(F)F` [AP325], for which the “effect on GABA-induced INS-1 cell proliferation” value in data set [1] (AP325 at 10^−7-10^−8 M with GABA, FIG. 7) is listed as “significantly enhanced GABA-induced INS-1 cell proliferation”. The “INS-1 cell proliferation (toxicity at high dose)” value in [1] (compound alone at 10^−4-10^−5 M, FIG. 6) is recorded as “significantly inhibited INS-1 cell proliferation”. The INS-1 cell proliferation result in data set [1] (compound alone at 10^−6-10^−10, FIG. 6) was “did not increase significantly the proliferation of INS-1 cells”; in [1] (setting [10]), “slightly increased the proliferation of INS-1 cells”; in [1] (compound at 3×10^−7-10^−8 M together with 0.03 mM GABA) it was “significantly promoted INS-1 cell proliferation”; in [1] (compound at 10^−6 M, data not shown) it was “did not significantly change the proliferation of INS-1 cells”; in data set [1] (compound at 10^−7 together with 0.01 mM GABA) it was “significantly stimulated INS-1 cell proliferation”. Besides, the “soluble in DMSO” value in data set [2] (in DMSO) is 50 mM.

On to `NCCCC(=O)O` [GABA, gamma-aminobutyric acid], for which the INS-1 cell proliferation entry is reported as “did not stimulate INS-1 proliferation” in data set [1] (0.01 mM GABA alone, FIG. 9 panels C-G); “failed to induce INS-1 cell proliferation; also recorded: did not significantly stimulate INS-1 cell proliferation” in data set [1] (GABA alone at 0.03-0.01 mM); “stimulated INS-1 cell proliferation” in data set [1] (GABA alone at 0.03-0.3 mM, FIG. 9 panels C-G); “stimulated INS-1 cell proliferation” in [1] (GABA alone at 1-0.1 mM). Also, the “INS-1 cell proliferation, single agents of TSPO experiment” value (“INS-1 cell proliferation, single agents” for short) in [1] (setting [11]) is “induced INS-1 cell proliferation”. Moreover, in data set [3], the “replicating adult human β-cells in islet xenoplants” value was 2-3%. The adverse effects entry in data set [4] was “no adverse effects”. Further, the clinical benefit entry in [4] was “no clinical benefit”. In addition, the “human islet cell proliferation” value in data set [5] (0.03 mM GABA alone, 4 days, FIG. 3) was “did not significantly enhance human islet cell proliferation”; in [5] (0.03 mM GABA alone, FIG. 12), “did not significantly enhance human islet cell proliferation”; in [5] (GABA alone at 0.3-3 mM, FIG. 12) it was “significantly enhanced human islet cell proliferation”. The “level of GABA alone required to achieve a similar level of proliferation” value in [5] (similar to 0.03 mM GABA + 100 nM alprazolam, FIG. 12) was found to be 0.3 mM; in data set [5] (similar to 0.03 mM GABA + alprazolam 30 ng/ml, FIG. 3), 0.3 mM.

`CCC(C)N(C)C(=O)c1cc2ccccc2c(-c2ccccc2Cl)n1` (centres unmarked) [PK11195]: the “effect of TSPO inhibitor on GABA + midazolam or clonazepam enhanced INS-1 cell proliferation” value in data set [1] (PK11195 1 uM, GABA 0.3 mM, PAM 100 nM, 48 hrs, FIG. 9 panel H) was “not affected by PK11195; also recorded: did not affect the ability of GABA and the tested benzodiazepines to enhance INS-1 cell replication”. In data set [1] (setting [11]), the “INS-1 cell proliferation, single agents” value is “but not clonazepam or PK11195 induced INS-1 cell proliferation”.

Consider `Cc1nnc2n1-c1ccc(Cl)cc1C(c1ccccc1)=NC2` [alprazolam], for which the “EAE and inflammation in the spinal cords” value in [6] was “inhibited EAE and inflammation in the spinal cords”. The “concentration in the serum” value in data set [7] was 0.01 to 0.1 µg/mL. Further, the HbA1c levels result in [8] was “significantly reduced”. For the same molecule, the INS-1 cell proliferation entry in data set [1] (0.01 mM GABA in the presence of 30 or 100 nM alprazolam, FIG. 9 panel C) is given as “significantly increased INS-1 cell proliferation”; in data set [1] (setting [12]) it was “significantly stimulated proliferation of INS-1 cells”. Besides, in data set [1] (alprazolam at high concentration of GABA (0.1 or 0.3 mM)), the “ability to enhance GABA's pro-mitotic effects on INS-1 cells” value is “had less ability to enhance GABA's pro-mitotic effects”. Moreover, the “binding to TSPO” value in [9] is “does not bind to TSPO”. In addition, the “human islet cell proliferation” value in [5] (0.03 mM GABA together with 100 nM alprazolam, FIG. 12) is given as “significantly enhanced human islet cell proliferation”; in data set [5] (dose range of alprazolam alone, low concentrations, FIG. 10), “promoted human islet cell proliferation”. In data set [5] (0.03 mM GABA together with alprazolam 30 ng/ml, 4 days, FIG. 3), the “human islet cell proliferation enhanced” value came to 138%. For the same molecule, in data set [5] (alprazolam 30 ng/ml alone, no added GABA, 4 days, FIG. 2), the “human islet cell proliferation promoted compared to cultures with no alprazolam” value was “about 123%”. Moreover, in [5] (co-treatment 100 nM alprazolam and GABA, FIG. 12), the “human islet cell proliferation relative to the corresponding GABA (alone) dose” value is on record as “significantly increased human islet cell proliferation”.

Consider `O=C1CN=C(c2ccccc2Cl)c2cc([N+](=O)[O-])ccc2N1` [clonazepam], for which the INS-1 cell proliferation entry in [1] (setting [13]) is recorded as “enhanced cell proliferation”; in [1] (compound alone at 10^−4-10^−9 M, 48 hours) it was “did not significantly change the proliferation of INS-1 cells”. In addition, the “effect on GABA-induced INS-1 cell proliferation” value in data set [1] (setting [14]) is on record as “significantly enhanced GABA-stimulated INS-1 cell proliferation”. Further, the “INS-1 cell proliferation, single agents” value in [1] (setting [11]) is on record as “but not clonazepam or PK11195 induced INS-1 cell proliferation”. In addition, the “effect on GABA-stimulated INS-1 cell proliferation” value in [1] was “enhanced GABA-stimulated INS-1 cell proliferation”.

With `Cc1ncc2n1-c1ccc(Cl)cc1C(c1ccccc1F)=NC2` [midazolam], the INS-1 cell proliferation result is reported as “enhanced cell proliferation” in [1] (setting [13]); “significantly stimulated proliferation of INS-1 cells” in [1] (setting [12]); “significantly enhanced INS-1 cell proliferation” in data set [1] (PAM at 10^−7 or 3×10^−8 M with GABA at 0.03-0.01 mM); “significantly enhanced the proliferation of INS cells” in data set [1] (compound alone at 10^−7-3×10^−8 M, FIG. 4B); “significantly enhanced INS-1 cell proliferation” in data set [1] (setting [10]). Besides, the “effect on GABA-induced INS-1 cell proliferation” value in [1] (setting [14]) is on record as “enhanced GABA-induced INS-1 cell proliferation”. Also, the “toxicity against INS-1 cells” value in [1] (compound alone at 10^−5 M) was “slight toxicity”. Moreover, the “INS-1 cell proliferation, single agents” value in data set [1] (setting [11]) was “induced INS-1 cell proliferation”. In data set [1], the “effect on GABA-stimulated INS-1 cell proliferation” value is on record as “enhanced GABA-stimulated INS-1 cell proliferation”. Moreover, the solubility in data set [2] (water) came to 6.25 mM (≈ 2040 µg/mL).

As a reminder, the solubility is the concentration that dissolves in the medium under given conditions. Read a low solubility as a poorly soluble substance.
